In series [1] the test system is patients with stable coronary disease. Nature of the series: LoDoCo Trial, colchicine 0.5 mg/day added to standard secondary prevention. The series is classed as in vivo, human. Here is the method: This study is described in PCT/AU2013/001261 and is hereby incorporated in its entirety by reference.
All outcomes were evaluated by an experienced adjudicator blinded to the treatment allocation.
Patients with a history of bypass surgery were only eligible if they had undergone bypass surgery more than 10 years before, or had angiographic evidence of graft failure or had undergone stenting since their bypass surgery. All patients signed informed consent before randomization.
The randomization sequence was computer generated, kept concealed from the investigators at all times and was managed by a research assistant who had no involvement in the evaluation or management of study patients. Once the assistant received the consent form, the patients' demographic data were entered into the data base and the investigators and patients were advised in writing of the treatment group to which the patient had been assigned. […] Patients who were intolerant to therapy remained in the study, and were followed in the usual manner and included in the primary intention to treat analysis.
The drug was dispensed by their usual chemist, and if requested, patients were reimbursed for the cost of these scripts. All other treatments were continued as usual.
Patient compliance with treatment and outcome data were collected at routine follow up visits and at the time of any unplanned hospital admission. An acute coronary syndrome (ACS) was defined as either (a) Acute Myocardial Infarction (AMI), as evidenced by acute ischemic chest pain associated with a rise in serum troponin above the upper limit of normal or (b) Unstable Angina (UA), as evidenced by a recent acceleration of the patient's angina unassociated with a rise in serum troponin but associated with angiographic evidence of a change in the patient's coronary anatomy. (Unstable Angina Braunwald classification types IB and IIB). The ACS was characterized as being stent-related if there was evidence of significant in-stent stenosis or acute stent thrombosis. Out of Hospital Cardiac Arrest was defined as either a sudden death as evidenced on the patient's death certificate, or a non-fatal out of hospital cardiac arrest, defined as a recovery from sudden collapse associated with documented asystole, ventricular tachycardia or ventricular fibrillation. Noncardioembolic ischemic stroke was defined as CT or MRI proven ischemic stroke adjudged by the treating neurologist as not being due to atrial fibrillation or intracranial hemorrhage.
The primary efficacy outcome was the composite, ACS, fatal or non-fatal out of hospital cardiac arrest or non-cardio-embolic ischemic stroke. Secondary outcomes were (a) individual components of the primary outcome, and (b) the components of ACS unrelated to stent disease.
The pre-specified study duration was a minimum follow up of two years in all patients. Accordingly the study was closed on May 31, 2012. During May, all living patients were contacted by phone to collect compliance and outcome data from the last date of follow-up. Final outcome data were available in all patients and no patients were lost to follow up.
Summary statistics, including mean and standard deviation were calculated for all baseline characteristics by treatment arm. All time to event outcomes were calculated in days by subtracting the date of randomization from either: (1) the date of event or death; or (2) the trial termination date for those patients not experiencing the defined event. […]

The test system of series [2] is patients with a first episode of recurrent pericarditis. The note with it: conventional treatment with aspirin plus colchicine 1.0-2.0 mg first day then 0.5-1.0 mg/d for 6 months; cited from earlier work.

Regarding `COc1cc2c(c(OC)c1OC)-c1ccc(OC)c(=O)cc1[C@@H](NC(C)=O)CC2` [colchicine, N[5,6,7,9-tetrahydro-1,2,3,10-tetratmethoxy 9-oxobenzo[a]heptalen-7-yl],(S)-acetamide], the “number needed to treat, primary outcome” value in series [1] (colchicine 0.5 mg/day vs control) was found to be 11. The patients who died in series [1] (colchicine group (n=282), all of non-cardiac causes) was 4 patients. For the same compound, the “patients reporting early intolerance due to gastrointestinal side effects” value in series [1] (of 282 randomized to colchicine 0.5 mg/day) is on record as 11%. Besides, the “patients with events, on-treatment analysis” value in series [1] (patients compliant and tolerant to therapy beyond the first month) was 4.5%. Besides, in series [1] (treatment group vs control), the “Out of hospital cardiac arrest and non-cardio-embolic ischemic stroke” value is listed as “also reduced in the treatment group”. Further, in series [2], the “recurrence rate, actuarial rate at 18 months” value is on record as 24.0%.

The record behind these values is US10130585B2, “Methods of treating and/or preventing cardiovascular disease” (Murray and Poole Enterprises Limited, priority 2013, dated 2018).
